Assay results reported in paper PMC6811539, “Minute-scale persistence of a GPCR conformation state triggered by non-cognate G protein interactions primes signaling” (Nature Communications, 2019).

Experiments:
β2-AR-mCer = molecular target: T1, β2-AR-mCer (Homo sapiens, UniProt P07550); assay: competition pull-down assay, displacement of PC-Qp (fragments) from β2-AR-mCer membranes; type: binding; details: PC-Qp 50 μM; thirty seconds after UV irradiation
T1 construct: expressed in transfected cells; host or cells: native membranes of transiently transfected HEK293T cells
Protocol: Native membranes were prepared from cells expressing β2-mCer and were stored in sucrose-supplemented buffer A as described above (Membrane preparations). Membranes were sonicated (3× bursts, 15 s with 1 min pauses) and resuspended in ΔFRET buffer minus Ca^2+ to a concentration of 10 nM receptor based on fluorescence counts. bioQp (30 μM)/30 μM bioQp + 30 μM Qp/30 μM bioQp + 50 μM Qp, and 100 μM isoproterenol were added and mixed for 5 min. Samples were split into duplicates, one of which was not manipulated in any way to obtain the total receptor counts. To the other tube, 20 μl of 0.4 mg/ml streptavidin-coated magnetic beads were added, mixed, and precipitated using a Neodymium disc magnet N52 (20 × 40 mm). Supernatant was removed to a fresh micro-centrifuge tube to monitor fluorescence of receptors not bound to the beads. Percentage of receptors bound to the beads was calculated by subtracting the unbound from the total (duplicate). The experiment was repeated with UV exposure for 2 min, followed by the addition and pulldown using the magnetic beads.

[1] = extent of photocleavage of PC-Qp by MALDI-MS; type: physicochemical; parameters: Conc. App: unit: μM; details: for concentration of full-length PC-Qp: 50 μM input, native membranes, MALDI-MS, mean of three experiments; for Conc. App: PC-Qp full length; for PC-Qp full length (fraction, MALDI-MS): plus UV (350 nm, 2 min)
Protocol: Native membranes were prepared from cells expressing β2-mCer and were stored in sucrose-supplemented buffer A as described above (Membrane preparations). […]. Both samples were centrifuged 100,000 × g, 5 min, 4 °C to sediment the membrane. Supernatants were stored on ice for analysis by MS. Control samples containing 50 μM peptide in the buffer were also prepared.
Prior to matrix-assisted laser desorption and ionization time-of-flight MS (MALDI-TOF MS) analysis, the samples were desalted using C18 ZipTips (Millipore Corporation, Billerica, MA). The manufacturer’s standard protocol for peptide clean-up was followed. After elution from the ZipTip, 1 μL of each sample was spotted on a MALDI-TOF 384 spot stainless-steel target (Bruker Daltonics, Billerica, MA) and mixed with 1 μl of α-cyano-4-hydroxy-cinnamic acid (α-CHCA) matrix (15 mg/ml α-CHCA in 50% acetonitrile). Each spot was allowed to dry at room temperature. The target was placed in a Bruker Autoflex Speed MALDI-TOF mass spectrometer (Bruker Daltonics, Billerica, MA) equipped with a Nd-YAG 355 nm pulsed laser. The data were collected in reflectron mode, positive polarity, with an accelerating potential of 19 kV. Each spectrum was the accumulation of 4000 laser shots with complete spot raster of the laser during data collection. External calibration was performed using 0.5 μl α-CHCA and 0.5 μl of peptide standard (part# 206195, Bruker Daltonics, Billerica, MA) with Angiotensin II (monoisotopic mass [MH^+ ] 1046.5418), Angiotensin I (monoisotopic mass [MH^+ ] 1296.6848), SubstanceP (monoisotopic mass [MH^+] 1347.7354), Bombesin (monoisotopic mass [MH^+] 1619.8223), ACTH clip 1–17 (monoisotopic mass [MH^+] 2093.0862), ACTH clip 18–39 (monoisotopic mass [MH^+] 2465.1983), and Somatostatin 28 (monoisotopic mass [MH^+] 3147.4710). The Bruker data files were converted to mzXML files using MSConvertGUI tool in ProteoWizard open-source software. The mzXML files were viewed and analyzed with mMass v5.5 open-source software.

[2] = +UV (second block), replicate #1
[3] = +UV (second block), replicate #2
[4] = +UV (second block), replicate #3
[5] = −UV (first block), replicate #1
[6] = −UV (first block), replicate #2
[7] = −UV (first block), replicate #3

concentration of full-length PC-Qp ([1]; +UV (350 nm, 2 min)): 4.582 µM
% cleavage [1, 2]: 90.1408%
% uncleaved [1, 2]: 9.859%
% cleavage [1, 3]: 90.4762%
% uncleaved [1, 3]: 9.524%
% cleavage [1, 4]: 91.8919%
% uncleaved [1, 4]: 8.108%
Conc. App [1, 2]: 4.93
Conc. App [1, 3]: 4.7619
Conc. App [1, 4]: 4.054
Conc. App [1, 5]: 33.3333
Conc. App [1, 6]: 37.7551
Conc. App [1, 7]: 30.7692
PC-Qp full length (fraction, MALDI-MS) ([1]; replicate 1): 0.098
PC-Qp full length (fraction, MALDI-MS) ([1]; replicate 2): 0.095
PC-Qp full length (fraction, MALDI-MS) ([1]; replicate 3): 0.081
% cleavage [1, 5]: 33.3333%
% uncleaved [1, 5]: 66.6667%
% cleavage [1, 6]: 24.4898%
% uncleaved [1, 6]: 75.5102%
% cleavage [1, 7]: 38.4615%
% uncleaved [1, 7]: 61.5385%
concentration of full-length PC-Qp ([1]; −UV): 33.9526 µM
Substance: DTENIRFVFAAVKDTILQLNLKE(Anp)NLV [PC-Qp, photocleavable Qp, Y356 replaced by Anp]
competition with bioQp for receptor binding (β2-AR-mCer): no longer competes with bioQp for interaction with the receptor
